Counter-ions that a name gives are not always drawn.
Assays:
K. pneumoniae HE7 = test: In vivo antibacterial activity (PD50); conditions: Klebsiella pneumoniae, HE7, sc, challenge 1000 LD50s, 2 treatments, Table 11
Experimental: (§2) The results in these Tables and the PD50 's were determined by the procedure set forth on page 160 in Beskid et al., Antimicrobial Agents and Chemotherapy, Vol. 20, No. 2 pp. 159-167 (Aug. 1981) for "in vivo studies".

S. pneumoniae 6302 = test: In vivo antibacterial activity (PD50); conditions: Streptococcus pneumoniae, 6302, sc, challenge 1000 LD50s, 1 treatment, Table 11
Experimental: as §2

P. aeruginosa 6720 = test: In vivo antibacterial activity (PD50); conditions: Pseudomonas aeruginosa, 6720, sc, challenge 35 LD50s, 2 treatments, Table 11
Experimental: as §2

P. aeruginosa 5700 = test: In vitro antibacterial activity (MIC); type: cell-based; conditions: Pseudomonas aeruginosa, 5700, P. aeruginosa 5700; read-out: MIC
Summary of the method: (§1)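 Broth microdilution in Mueller-Hinton broth, drug range 128 to 0.008 μg/ml; each well inoculated with 1.5 μl of a 10^-2 dilution of overnight culture. Sealed trays incubated overnight at 37° C. MIC is the lowest concentration showing no visible growth.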

P. rettgeri ATCC 9250 = test: In vitro antibacterial activity (MIC); type: cell-based; conditions: Providencia rettgeri, ATCC9250, P. rettgeri ATCC 9250; read-out: MIC
Summary of the method: as §1

P. aeruginosa Stone 130 = test: In vitro antibacterial activity (MIC); type: cell-based; conditions: Pseudomonas aeruginosa, STONE130, read-out: MIC
Summary of the method: as §1

S. marcescens S2 = test: In vitro antibacterial activity (MIC); type: cell-based; conditions: Serratia marcescens; S. marcescens S2; read-out: MIC
Summary of the method: as §1

S. marcescens SM [1] = test: In vitro antibacterial activity (MIC); type: cell-based; conditions: Serratia marcescens, read-out: MIC
Summary of the method: as §1

E. cloacae 6951 [2] = test: In vitro antibacterial activity (MIC); type: cell-based; conditions: Enterobacter cloacae, 6951, E. cloacae 6951; read-out: MIC
Summary of the method: as §1

P. mirabilis 190 = test: In vitro antibacterial activity (MIC); type: cell-based; conditions: Proteus mirabilis, 190, P. mirabilis 190; read-out: MIC
Summary of the method: as §1

E. coli R-563 = test: In vitro antibacterial activity (MIC); type: cell-based; conditions: Escherichia coli, R563, E. coli R-563; read-out: MIC
Summary of the method: as §1

S. marcescens S5 = test: In vitro antibacterial activity (MIC); type: cell-based; conditions: Serratia marcescens, S5, S. marcescens S5; read-out: MIC
Summary of the method: as §1

P. vulgaris 100 = test: In vitro antibacterial activity (MIC); type: cell-based; conditions: Proteus vulgaris, 100
Summary of the method: as §1

E. coli 503-455 = test: In vitro antibacterial activity (MIC); type: cell-based; conditions: Escherichia coli, 503455
Summary of the method: as §1

E. aerogenes 8 [3] = test: In vitro antibacterial activity (MIC); type: cell-based; conditions: Klebsiella aerogenes; E. aerogenes 8; read-out: MIC
Summary of the method: as §1

P. mirabilis 620A = test: In vitro antibacterial activity (MIC); type: cell-based; conditions: Proteus mirabilis, 620A, P. mirabilis 620A; read-out: MIC
Summary of the method: as §1

P. mirabilis 90 = test: In vitro antibacterial activity (MIC); type: cell-based; conditions: Proteus mirabilis, 90, P. mirabilis 90; read-out: MIC
Summary of the method: as §1

K. pneumoniae 503-964 = test: In vitro antibacterial activity (MIC); type: cell-based; conditions: Klebsiella pneumoniae, 503964; K. pneumoniae 503-964; read-out: MIC
Summary of the method: as §1

E. cloacae P99 = test: In vitro antibacterial activity (MIC); type: cell-based; conditions: Enterobacter cloacae, P99, E. cloacae P99
Summary of the method: as §1

P. aeruginosa 8780 = test: In vitro antibacterial activity (MIC); type: cell-based; conditions: Pseudomonas aeruginosa; P. aeruginosa 8780; read-out: MIC
Summary of the method: as §1

K. pneumoniae A = test: In vitro antibacterial activity (MIC); type: cell-based; conditions: Klebsiella pneumoniae, K. pneumoniae A; read-out: MIC
Summary of the method: as §1

K. pneumoniae 8357 = test: In vitro antibacterial activity (MIC); type: cell-based; conditions: Klebsiella pneumoniae, 8357, K. pneumoniae 8357; read-out: MIC
Summary of the method: as §1

S. faecalis C1 [4] = test: In vitro antibacterial activity (MIC); type: cell-based; conditions: Enterococcus faecalis; S. faecalis C1; read-out: MIC
Summary of the method: as §1

P. aeruginosa 503-820 = test: In vitro antibacterial activity (MIC); type: cell-based; conditions: Pseudomonas aeruginosa, 503820; P. aeruginosa 503-820; read-out: MIC
Summary of the method: as §1

S. aureus 1059B = test: In vitro antibacterial activity (MIC); type: cell-based; conditions: Staphylococcus aureus, read-out: MIC
Summary of the method: as §1

P. aeruginosa 6719 = test: In vivo antibacterial activity (PD50); conditions: Pseudomonas aeruginosa, 6719, sc, challenge 2290 LD50s, 2 treatments, Table 11
Experimental: as §2

S. marcescens SM [5] = test: In vivo antibacterial activity (PD50); conditions: Serratia marcescens; sc; challenge 489 LD50s; 2 treatments; Table 11
Experimental: as §2

E. cloacae 6951 [6] = test: In vivo antibacterial activity (PD50); conditions: Enterobacter cloacae, 6951, sc, challenge 3162 LD50s, 2 treatments, Table 11
Experimental: as §2

P. aeruginosa 6799 = test: In vivo antibacterial activity (PD50); conditions: Pseudomonas aeruginosa, 6799, sc, sc; challenge 71 LD50s; 2 treatments; Table 11; read-out: PD50
Experimental: as §2

S. faecalis C1 [7] = test: In vivo antibacterial activity (PD50); conditions: Enterococcus faecalis, C1; sc; challenge 10 LD50s; 1 treatment; Table 11
Experimental: as §2

S. aureus Smith = test: In vivo antibacterial activity (PD50); conditions: Staphylococcus aureus, sc, challenge 70 LD50s, 2 treatments, Table 11
P. aeruginosa 6148B = test: In vivo antibacterial activity (PD50); conditions: Pseudomonas aeruginosa, sc, challenge 32 LD50s, 2 treatments, Table 11
Experimental: as §2

E. aerogenes 8 [8] = test: In vivo antibacterial activity (PD50); conditions: Klebsiella aerogenes, 8, sc, read-out: PD50, sc; challenge 10 LD50s; 2 treatments; Table 11
Experimental: as §2

S. pyogenes 4 = test: In vivo antibacterial activity (PD50); conditions: Streptococcus pyogenes, 4, sc, read-out: PD50
E. coli 257 = test: In vivo antibacterial activity (PD50); conditions: Escherichia coli, 257, sc, challenge >10^4 LD50s, 1 treatment, Table 11
P. aeruginosa 8710 = test: In vivo antibacterial activity (PD50); conditions: Pseudomonas aeruginosa, 8710, sc, challenge >10^4 LD50s, 2 treatments, Table 11, read-out: PD50
Experimental: as §2

P. aeruginosa 503-56 = test: In vivo antibacterial activity (PD50); conditions: Pseudomonas aeruginosa, 50356, sc, challenge 50 LD50s, 2 treatments, Table 11

SMILES: CC1(C)S[C@@H]2[C@H](N=CN3CCC(CCC4=NCCN4)CC3)C(=O)N2[C@H]1C(=O)O [N, [2S-(2alpha,5alpha,6beta)]-6-[[[4-[4,5-dihydro-1H-imidazol-2-yl)ethyl]-1-piperidinyl]methylene]amino]-3,3-dimethyl-7-oxo-4-thia-1-azabicyclo[3.2.0]heptane-2-carboxylic acid hydrochloride]
- ED50 (K. pneumoniae HE7): > 250 mg/kg
- ED50 (S. pneumoniae 6302): 78 mg/kg
- ED50 (P. aeruginosa 6720): 20 mg/kg
- MIC (P. aeruginosa 5700): 0.062 µg/mL
- MIC (P. rettgeri ATCC 9250): 0.125 µg/mL
- MIC (P. aeruginosa Stone 130): > 128 µg/mL
- MIC (S. marcescens S2): 0.062 µg/mL
- MIC (S. marcescens SM [1]): 0.062 µg/mL
- MIC (E. cloacae 6951 [2]): 8 µg/mL
- MIC (P. mirabilis 190): 0.125 µg/mL
- MIC (E. coli R-563): 0.031 µg/mL
- MIC (S. marcescens S5): 0.25 µg/mL
- MIC (P. vulgaris 100): 0.5 µg/mL
- MIC (E. coli 503-455): 1 µg/mL
- MIC (E. aerogenes 8 [3]): 32 µg/mL
- MIC (P. mirabilis 620A): 128 µg/mL
- MIC (P. mirabilis 90): 0.125 µg/mL
- MIC (K. pneumoniae 503-964): 0.062 µg/mL
- MIC (E. cloacae P99): 0.016 µg/mL
- MIC (P. aeruginosa 8780): 128 µg/mL
- MIC (K. pneumoniae A): 0.016 µg/mL
- MIC (K. pneumoniae 8357): 0.125 µg/mL
- MIC (S. faecalis C1 [4]): 64 µg/mL
- MIC (P. aeruginosa 503-820): 16 µg/mL
- MIC (S. aureus 1059B): 64 µg/mL
- ED50 (P. aeruginosa 6719): 22 mg/kg
- ED50 (S. marcescens SM [5]): 19 mg/kg
- ED50 (E. cloacae 6951 [6]): < 2 mg/kg
- ED50 (P. aeruginosa 6799): > 250 mg/kg
- ED50 (S. faecalis C1 [7]): 62 mg/kg
- ED50 (S. aureus Smith): 12 mg/kg
- ED50 (P. aeruginosa 6148B): 37 mg/kg
- ED50 (E. aerogenes 8 [8]): > 250 mg/kg
- ED50 (S. pyogenes 4): 4.3 mg/kg
- ED50 (E. coli 257): < 1 mg/kg
- ED50 (P. aeruginosa 8710): 50 mg/kg
- ED50 (P. aeruginosa 503-56): 43 mg/kg

Reference: patent publication US4605744A, “Imidazole derivatives” (Hoffmann-La Roche Inc., priority 1985, dated 1986)
